The values below come from patent publication US7563862B2, “Neural regeneration peptides and methods for their use in treatment of brain damage” (Neuren Pharmaceuticals Limited, priority 2001, dated 2009).

The subject of series [1] is cerebellar microexplants. The series can be described thus: cerebellar microexplant survival assay, 3-NP/glutamate injury. The format is cell-based, rat. The following applies: for concentration of maximal neuroprotective effect / neuroprotective activity compared to NRP-5 RG: NRP-5 RG analogues. As for the experimental part: Toxicological and drug administration experiments were designed such that 1/100 parts of toxin and neuroprotective drug were administered simultaneously to the freshly prepared cerebellar microexplants derived from P-4 or P8 rats. Glutamate was prepared as a 50 mM stock solution in MilliQ water while 50 mM 3-nitropropionic acid was pH-adjusted (pH 6.8-7.2) in MilliQ water. The concentrations of the oxidative stress inducing toxin, 3-nitropropionic acid (3-NP), and the excitotoxin, glutamate, in the assay were 0.5 mM each. Lyophilized peptides were reconstituted in PBS or 100 μg/ml human transferrin as a 10 μM stock solution. Subsequently, serial dilutions were made. Cerebellar microexplants were cultivated for 48-72 hours at 34° C., 5% CO2 in air and 100% humidity before they were fixed by increasing amounts of paraformaldehyde (0.4%, 1.2%, 3% and 4%—each treatment 2-3 min).
For statistical analysis of survival, four fields (each field having an area of 0.65 mm^2) of each fixed cerebellar culture with the highest cell densities were chosen, and cells displaying neurite outgrowth were counted. Statistical significance was measured by Student's t-test.
(§1) Laminated cerebellar cortex was extracted from P3/4, P7/8 rat pups and triturated through gauze having a 125 μm pore size to obtain uniformly sized microexplants. After centrifugation for 3 minutes at 61 g and the pellet was resuspended in StartV medium (Biochrom) and the suspension seeded on poly-D-lysine coated coverslips in 6-well plates and incubated for 3 hrs to allow adherence, before 1 ml StartV per well was added. As described previously, glutamate/3-NP and NRP were also added. The explants are cultivated at 34° C. at 5% CO2 and 100% humidity for 48-72 hrs. BrdU was administered at start of cultivation for proliferation rate measurements and cells are counted per microscopic field after 48-72 hrs.
Cerebellar Microexplants were prepared as described in Example 9 with the addition of SDF-1 as described, in addition to glutamate/3-NP, and NRP.
Cerebellar microexplants were prepared as described in Example 9 with the addition of SDF-1, Wortmannin and PD98059 (both Calbiochem), as described, in addition to glutamate/3-NP, and NRP.

For series [2], the system named is mouse neural stem cells. Nature of the series: haptotactic migration assay, mouse neural stem cells. The format is cell-based. As for the experimental part: NRPs were tested for migration-inducing/chemoattractive activity on mouse neural stem cells, EGF-dependent immortalized mouse neural stem cell line MEB5 and wild-type PC-12 cells in a haptotactic migration assay as described below.
Initial NRP Coating. Control wells of Transwell plates (Coming) with 12 μm pore size were coated in 1.5 ml of the BSA/PBS vehicle. Remaining plates were coated using various concentrations of NRPs ranging between 1-100 ng/ml (prepared in PBS containing 10 ug/ml BSA). The plates were then incubated at 37° C. for 1 hr to coat. Wells were then rinsed 2× with 1 ml sterile PBS.
Laminin ([…]) for MEB-5 cells, PDL (50 μg/ml)+Matrigel for mouse primary stem cells and fibronectin (25 ug/ml)+matrigel for PC-12 cells were used as extracellular matrix (ECM) coating for the cells. All ECM compounds were diluted in PBS. 1.5 ml of the ECM per well was incubated for 2 hrs at room temperature. The wells were then rinsed once with Iml serum-free media (e.g. NB/B27) followed by 1 ml PBS wash.
A 5 ug/mL PDL/PLL mixture (in PBS) was used to coat inserts. Subsequently the inserts were rinsed with MilliQ water.
Transferring to Media and Cell Seeding: Appropriate medium (MEB-5 cells: DMEM-high glucose+N2 (growth medium supplement from Invitrogen)+10 ng/biotin+2 mM L-glutamine, primary stem cells: NSA-medium from Euroclone and for PC-12 cells: NB/B27 medium) was transferred into the 12-well plates. […] Plates were fixed at 1-2 days in vitro (DIV).
Fixation: Inserts were discarded and wells fixed in successive dilutions of PFA (0.4, 1.2, 3 and 4%) for 3-5min in each dilution. […] The wells were rinsed and stored in PBS until counting.
A haptotactic migration assay was performed according to the description of Example 10 using rat NRP-9SD (SEQ ID NO:34) (4 nM) and mouse NRP-7SW (SEQ ID NO:24) (0.4 nM) as attractants in a Boyden chamber

Series [3] concerns cerebellar microexplants. The series can be described thus: cerebellar microexplant proliferation assay under injury (BrdU-positive nuclei). In kind it is cell-based, rat. As to the method:
Using the toxins described above, cerebellar explants were exposed for 24 hours, at the beginning of culturing to dilutions of NRP and 0.1 μM BrdU. Subsequently, 80% of the medium was changed without addition of new toxins and NRPs. The cerebellar cultures were fixed as described above after 3 days in vitro. The detection of the incorporated BrdU level was performed as described previously. Under these conditions, over 99% of the cells in the cerebellar population were neurons. Therefore any increase in cell number after NRP administration was most likely due to neuronal cell proliferation.
For statistical analysis of proliferation four fields (each field having an area of 0.65 mm^2) of each fixed cerebellar culture displaying highest density of BrdU-positive nuclei were chosen, and BrdU-positive nuclei were counted. Statistical significance was measured by Student's t-test.
as §1

“Also recorded” adds a separate entry of the source. Like-named read-outs stand apart in the source and are kept apart here. Ends that are not written are not given here. Peptide text beside a SMILES is read from it.

`CC(C)C[C@H](NC(=O)[C@H](CS)NC(=O)[C@@H]1CCCN1C(=O)[C@H](Cc1c[nH]cn1)NC(=O)[C@H](CC(C)C)NC(=O)[C@H](CO)NC(=O)CNC(=O)[C@@H]1CCCN1C(=O)[C@H](C)NC(=O)[C@H](CCCNC(=N)N)NC(=O)[C@H](CCCNC(=N)N)NC(=O)[C@H](C)NC(=O)[C@H](CCC(=O)O)NC(=O)[C@@H]1CCCN1C(=O)[C@H](CC(=O)O)NC(=O)[C@@H](N)CCCCN)C(=O)N[C@@H](C)C(=O)N[C@@H](C)C(=O)N[C@@H](CO)C(=O)N[C@@H](CS)C(=O)N[C@@H](CO)C(=O)N[C@@H](C)C(=O)N[C@@H](C)C(=O)NCC(N)=O` [NRP-2 segment KG] (H-KDPEARRAPGSLHPCLAASCSAAG-NH2): in series [1], the cytotoxicity entry is “no cytotoxicity”.
Take `COc1cccc(-c2cc(=O)c3ccccc3o2)c1N` [PD98509, reference compound]: the “effect of inhibitor on NRP-induced increase in migrating NSC” value in series [2] (NRP-9 SD (4 nM), 15 μM PD98509) is recorded as “almost completely blocked; also recorded: inhibited”. Moreover, the “effect of inhibitor alone under vehicle and injury conditions” value in series [1] is “only modest toxicity”. For the same compound, in series [1] (with NRP-9 SD, antibody 1 μg/ml 72 hours, wortmannin 100 nM), the “effect of inhibitor / neutralizing antibody on NRP neuroprotective activity” value is “abolished the neuroprotective activity of NRP; also recorded: completely blocked neuroprotective activity”.
As for `COC[C@H]1OC(=O)c2coc3c2[C@@]1(C)C1=C(C3=O)[C@@H]2CCC(=O)[C@@]2(C)C[C@H]1OC(C)=O` [wortmannin, reference compound], the “effect of inhibitor alone under vehicle and injury conditions” value in series [1] (without NRP) is “no significant effect after vehicle and injury conditions without the NRP”.
As for “AAARRDAPGRAGG-NH2 [SEQ ID NO:45, NRP-5 RG analogue]”, in series [1], the “concentration of maximal neuroprotective effect” value was “about 1 pM” and the “neuroprotective activity compared to NRP-5 RG” value is reported as “even higher neuroprotective activity than the original NRP-5 RG”.
As for “GTPGRAEAGGQ-NH2 [NRP-4 segment GQ, 11-mer of NRP-4]”, in series [3] (10 nM), the “up regulation in the proliferation rate compared to injured cerebellar microexplants” value amounted to 132.2%. Besides, the “concentration at which proliferation induction was observed” value in series [3] (3-NP/glutamate, NRP and BrdU 24 hrs, counted after 72 hrs) is given as 10 nM. For the same compound, the “concentration range of maximal biological activity for survival” value in series [1] (NRP simultaneous with 3-NP/glutamate, 48 hrs) is recorded as 10-100 nM. For the same compound, the “survival rates after severe injury” value in series [1] (nanomolar concentrations) came to 50%. The “concentrations with statistically significant effects” value in series [1] (simultaneous, 48 hrs, units in value) was 10 pM, 100 pM, 10 nM and 100 nM.
As for “REAAADAPGRAGG-NH2 [SEQ ID NO:44, NRP-5 RG analogue]”, in series [1], the “concentration of maximal neuroprotective effect” value is “about 1 pM” and the “neuroprotective activity compared to NRP-5 RG” value was “did not significantly change in the activity profile”.
For “REGRRDAAAAAGG-NH2 [SEQ ID NO:47, NRP-5 RG analogue, PGR-domain substituted]”, the “neuroprotective activity compared to NRP-5 RG” value in series [1] is “some neuroprotective effect at certain concentrations”. In series [1] (units in value), the “concentrations with some neuroprotective effect” value is 0.1 pM, 10 pM and 100 nM.
Take “REGRRDAPGRAAA-NH2 [SEQ ID NO:46, NRP-5 RG analogue, C-terminal GG-domain substituted]”: in series [1], the “only concentration with statistically significant effect” value is on record as 100 nM and the “neuroprotective activity compared to NRP-5 RG” value was “had less effect than NRP-5 RP”.
Take “SEPEARRAQGGQIPSERVLSD-NH2 [NRP-9 segment SD, 21-mer of rat NRP-9]”: in series [2] (4 nM), the “cells attracted compared to control condition” value is “Nearly four times”. For the same compound, the “concentration range of maximal neuronal survival activity” value in series [1] (0.5 mM 3-NP/glutamate, 48 hrs) was in the range of 0.1 to 10 pM.
